Measured values published in US20090264375A1, “INTRAOCULAR IRRIGATING SOLUTIONS AND METHODS FOR TREATING CORNEAL EDEMA” (ALCON RESEARCH, LTD., priority 2007, published 2009).

Assay: GSSG content after autoclaving at F0=8
Assay type: physicochemical
Conditions: 0.4% histidine in reconstituted BSS PLUS, autoclaved
Excerpt: The composition of reconstituted BSS PLUS® Sterile Intraocular Irrigating Solution is shown below in Table 1. The reconstituted product was used as a control solution. A sample of the reconstituted product was then spiked with 0.4% histidine to form the experimental solution. The control solution and the experimental solution were then each divided into two replicates each. The pH of one control and one experimental replicate was then adjusted to pH 6.8 and the pH of the other replicate was adjusted to pH 7.4. Both sets of the solutions were then autoclaved at F0=8. After autoclaving, GSSG contents in all the solutions were determined and the results are tabulated in Table 2 as percent GSSG remaining of the label claim in BSS PLUS® Sterile Intraocular Irrigating Solution.
All of the above solutions were autoclaved in the same cycle. However, in this particular experiment, the sterilizer used was not capable of finely regulating F0 and thus significant degradation of GSSG occurred.

SMILES: N[C@@H](Cc1c[nH]cn1)C(=O)O [histidine]
- Effect on GSSG stability in solution: stabilizes GSSG in solution
